Results from US9950062B2, “Compounds and compositions as TLR activity modulators” (priority 2009, dated 2018).
Blank lines part the entries; values can stand above or below the compound they belong to.

Legend:
[1] = Adsorption to aluminum hydroxide, LC-MS/MS of supernatant
Procedure: The resulting solution was diluted 10-fold with blank histidine buffer to a final compound concentration of 0.1 mg/mL. Diluted solutions were incubated at 37° C. for 5 hours. The samples were centrifuged at 14,000 rpm for 10 minutes to pellet the insoluble. The supernatant (along with an internal standard) was then evaluated by LC-MS/MS using a ballistic gradient (from 5% CH3CN-0.5% formic acid to 95% CH3CN-1.0% formic acid in 3.5 minutes) on a Waters Atlantis dC18 (50 mm×2.1 mm) column at room temperature against a calibration curve prepared at known compound concentrations ranging from 0.005 to 50 μM. The concentration in the supernatant was calculated as % unbound to alum compared to control; the % bound to alum was calculated as 100% minus % unbound.

[2] = system: strain NZ98; assay: Serum bactericidal antibody (SBA) assay after immunization with 5CVMB; assay type: in vivo, MenB; conditions: compound pre-adsorbed to aluminium hydroxide adjuvant (25 μg or 100 μg) vs adjuvant alone or compound alone
Procedure: The MenB antigens are tested for in vivo immunogenic potency using a serum bactericidal antibody (SBA) assay.

[3] = Muscle levels 24 hours after intramuscular injection; conditions: 24 hours after intramuscular injection (100 μg) with protein antigens, Balb/C mice
[4] = system: CD4+ T-cells, CD19+ B-cells; assay: Activation markers on T-cells and B-cells in spleen and draining lymph nodes; assay type: in vivo
[5] = system: serum cytokines (IL-6, mKC, MCP-1); assay: Serum cytokines 24 hours after immunization; assay type: in vivo
Procedure: Serum cytokines are measured 24 hours after immunization with compound 6, with or without aluminium hydroxide adjuvant, or with buffer alone. Levels of IL-6 and mKC are both about ˜4-fold higher after administration of compound 6 without adjuvant, and levels of MCP-1 are ˜20-fold higher (compared to vehicle alone). […] Similarly, adsorption to aluminium hydroxide adjuvant decreases both the proportion of CD4+ T-cells which are also CD69+ and the proportion of CD19+ B-cells which are also CD86+, and this effect is seen in both the spleen and in draining lymph nodes. For example, adsorption reduces the proportion of CD86+ B-cells from ˜75% to ˜15%.

[6] = Adsorption to and desorption from aluminum hydroxide, HPLC (compound-modified alum formulation); assay type: physicochemical; conditions: alum formulation as for compound 1
Procedure: SDS-PAGE was used to evaluate the effect of the binding of compound 1 to aluminum hydroxide adjuvant on the ability of MenB antigens to bind to aluminum hydroxide adjuvant. Compound 1 was dissolved in 10 mM NaOH at 0.5 mg/ml final concentration. Alum and Compound 1 were combined at 1:6 (Compound 1:Alum) weight ratio in the presence of 10 mM Histidine final concentration. The pH was adjusted to 9.2 and the mixture was gently agitated for 3 hours at room temperature, allowing the reaction to occur. The mixture was centrifuged at 5000×g for 10 minutes and the supernatant discarded. The pellet (i.e. the compound 1-modified Alum) was resuspended in the initial Alum buffer to obtain the starting alum concentration. The pH was adjusted to 6.5. The modified Alum was then used for the formulation with the MenB antigens.
The adsorption of compound 16 and compound 17 to aluminum hydroxide was also evaluated using the alum formulation described above for compound 1. […] In addition, SDS-PAGE analysis of antigen binding in the presence of compound 16 or compound 17 was carried out as described above.

[7] = Binding to aluminum hydroxide adjuvant, HPLC of supernatant; assay type: physicochemical; conditions: 100 μg/dose, room temperature and 37° C., 1, 5 and 24 hours
Procedure: The binding of the compounds of Formula (I) provided herein to aluminum-containing adjuvants at pH 9 and pH 6.5 was evaluated using HPLC to monitor the presence of the compound of Formula (I) in the supernatant.
(§1) Compound 1 (0.5 mg/mL) was dissolved in 10 mM NaOH and added to aluminum hydroxide adjuvant (2 mg/mL) resulting in a 100 μg/dose formulation. The supernatant was evaluated with HPLC using a ballistic gradient (from 10% CH3CN-0.1% TFA to 100% CH3CN-0.1% TFA in 2.5 minutes) on a C18 ([…]×4.6 mm) ACE column at 45° C. To evaluate the effect of supernatant temperature and incubation time on binding, the supernatant was evaluated at a supernatant temperature of room temperature and at 37° C. after 1 hour, 5 hours and 24 hours. A control without aluminum hydroxide was also evaluated.
as §1, with “Compound 5 (1” for “Compound 1 (0.5”, “to aluminium” for “to aluminum”
as §1, with “to aluminium” for “to aluminum”, “formulation. The pH of the solution was adjusted to pH 6.5 using HCl.” for “formulation.”
as §1, with “Compound 5 (1” for “Compound 1 (0.5”, “mM histidine buffer (1 mg/mL)” for “mM NaOH”, “to aluminium” for “to aluminum”

[8] = Systemic serum exposure after intramuscular injection; assay type: in vivo; conditions: intramuscular injection 100 μg (4 mg/kg), Balb/C mice
Procedure: Systemic serum exposure of the compounds is followed for 24 hours.

[9] = Phosphate desorption and organic solvent extraction from aluminum hydroxide, HPLC; assay type: physicochemical
Procedure: An organic solvent extraction method was used to evaluate whether compound 1 was covalently bound to aluminum hydroxide. The formulation was prepared as follows: 2 mg/ml aluminum hydroxide, 100 μg/dose compound 1, 10 mM histidine buffer) and the pH was adjusted to 9. A control formulation without aluminum hydroxide was also prepared.
One ml of the formulation containing Alum was mixed with 1 ml of KH2PO4 1M pH 9 (0.5M final conc, pH 9) and was left in gentle agitation overnight at 37° C. to allow desorption of compound 1 (compound 5) from the aluminum hydroxide via ligand exchange with the phosphate anions. Organic extraction was then performed: 1 ml of each sample was mixed with 1 ml of n-butanol and vortexed. After the formation of 2 phases, the upper phase (butanol) was recovered, dried with N2 and resuspended in MeOH/10 mM NaOH. HPLC analysis was run both for the formulation supernatants and for the butanol extracted samples (C18 column; 0-100% B in 2 min; A=0.1% TFA in H2O; B=0.1% TFA in ACN). […]

[10] = Confocal microscopy of aluminium hydroxide adjuvant mixed with compound; assay type: physicochemical; conditions: adjuvant 3 mg/ml, compound 0.25 mg/ml
Source text: Compound 1 is intrinsically fluorescent.

[11] = Solubility; assay type: physicochemical
[12] = 10 mM histidine buffer pH 6.8, final compound concentration 0.1 mg/mL, 37° C. for 5 hours, 100% minus % unbound
[13] = with aluminium hydroxide adjuvant
[14] = without aluminium hydroxide adjuvant
[15] = adsorbed to aluminium hydroxide adjuvant
[16] = in combination with aluminium hydroxide adjuvant
[17] = pH 9, 10 mM NaOH, aluminum hydroxide 2 mg/mL

SMILES: Cc1ccc2c(c1)nc(N)c1ncc(CCc3ccc(OCCOCCOCCC(F)(F)P(=O)(O)O)cc3C)cc12 [Compound 6, 3-(2-(2-(4-(2-(5-amino-8-methylbenzo[f][1,7]naphthyridin-2-yl)ethyl)-3-methylphenoxy)ethoxy)ethoxy)-1,1-difluoropropylphosphonic acid]
% bound to alum [1, 12]: 98.2% | bactericidal (SBA) titer against strain NZ98 [2]: large increase in SBA titer | muscle level of compound [3, 13]: readily detected | muscle level of compound [3, 14]: undetectable | proportion of CD86+ B-cells [4, 15]: ~15% | effect of adsorption on proportion of CD4+ T-cells which are also CD69+ ([4]; adsorbed vs unadsorbed, spleen and draining lymph nodes): decreases | proportion of CD86+ B-cells ([4]; without adsorption to aluminium hydroxide adjuvant): ~75% | serum IL-6 level compared to vehicle alone [5, 16]: < 2 fold | serum MCP-1 level compared to vehicle alone [5, 16]: < 2 fold | serum mKC level compared to vehicle alone [5, 16]: < 2 fold | serum IL-6 level compared to vehicle alone ([5]; without adjuvant): ~4 fold | serum MCP-1 level compared to vehicle alone ([5]; without adjuvant): ~20 fold | serum mKC level compared to vehicle alone ([5]; without adjuvant): ~4 fold

% bound to alum [1, 12]: 96.2% | muscle level of compound [3, 13]: readily detected | muscle level of compound [3, 14]: undetectable
SMILES: Cc1cc(OCCOCCOCCC(F)(F)P(=O)(O)O)ccc1CCc1cnc2c(N)nc3cc(CCC(=O)O)ccc3c2c1 [Compound 17, 3-(5-amino-2-(4-(2-(2-(3,3-difluoro-3-phosphonopropoxy)ethoxy)ethoxy)-2-methylphenethyl)benzo[f][1,7]naphthyridin-8-yl)propanoic acid]
compound in supernatant after addition of aluminum hydroxide (HPLC) [6]: no compound was observed in the supernatant

% bound to alum ([1]; 5 h, 0.1 mg/mL, pH 6.8): 96.0%
SMILES: Cc1cc(OCCOCCC(F)(F)P(=O)(O)O)ccc1CCc1cnc2c(N)nc3cc(CCC(=O)O)ccc3c2c1 [Compound 19, 3-(5-amino-2-(4-(2-(3,3-difluoro-3-phosphonopropoxy)ethoxy)-2-methylphenethyl)benzo[f][1,7]naphthyridin-8-yl)propanoic acid]

SMILES: Cc1ccc2c(c1)nc(N)c1ncc(CCc3ccc(OCCCC(F)(F)P(=O)(O)O)cc3C)cc12 [Compound 5, 4-(4-(2-(5-amino-8-methylbenzo[f][1,7]naphthyridin-2-yl)ethyl)-3-methylphenoxy)-1,1-difluorobutylphosphonic acid]
presence of compound in supernatant when aluminum hydroxide included (HPLC) ([7]; pH 6.7, 10 mM histidine buffer, aluminium hydroxide 2 mg/mL): not present in the supernatant | presence of compound in supernatant when aluminum hydroxide included (HPLC) [7, 17]: not present in the supernatant

SMILES: Cc1cc(OCCCC(F)(F)P(=O)(O)O)ccc1CCc1cnc2c(N)nc3cc(CCC(=O)O)ccc3c2c1 [Compound 16, 3-(5-amino-2-(4-(4,4-difluoro-4-phosphonobutoxy)-2-methylphenethyl)benzo[f][1,7]naphthyridin-8-yl)propanoic acid]
serum concentration profile over 24 hours [8, 15]: much flatter response which is sustained for a longer period | serum concentration profile over 24 hours ([8]; unadsorbed (buffer alone)): high initial serum concentration which rapidly declines | % bound to alum [1, 12]: 94.5% | compound in supernatant after addition of aluminum hydroxide (HPLC) [6]: no compound was observed in the supernatant | muscle level of compound [3, 13]: readily detected | muscle level of compound [3, 14]: undetectable

SMILES: Cc1ccc2c(c1)nc(N)c1ncc(CCc3ccc(OCCCP(=O)(O)O)cc3C)cc12 [Compound 1, 3-(4-(2-(5-amino-8-methylbenzo[f][1,7]naphthyridin-2-yl)ethyl)-3-methylphenoxy)propylphosphonic acid]
presence of compound in supernatant when aluminum hydroxide included (HPLC) ([7]; pH 6.5 (adjusted with HCl), aluminium hydroxide 2 mg/mL): not present in the supernatant | presence of compound in supernatant when aluminum hydroxide included (HPLC) [7, 17]: not present in the supernatant | quantity of compound in supernatant of formulation treated with KH2PO4 (desorption by phosphate anions) ([9]; 0.5M KH2PO4 pH 9, overnight at 37° C.): Increased quantities | Concentration ([9]; control/extract: n-butanol extract of control formulation without aluminum hydroxide): 217 ± 1 µg/mL | Concentration ([9]; extaract: n-butanol extract of formulation with alum): 27 ± 1 µg/mL | Concentration ([9]; phosphate supernatant: formulation with alum treated with 0.5M KH2PO4 pH 9 overnight at 37° C.): 59 ± 1 µg/mL | Concentration ([9]; phosphate/extract: n-butanol extract of KH2PO4-treated formulation with alum): 119 ± 1 µg/mL | Concentration ([9]; supernatant control: formulation without aluminum hydroxide): 329 ± 1 µg/mL | Concentration ([9]; supernatant of formulation with 2 mg/ml aluminum hydroxide, 10 mM histidine buffer, pH 9): 5 ± 1 µg/mL | association with aluminium hydroxide adjuvant particles (confocal microscopy) [10]: associates with particles of the insoluble metal salt | solubility in histidine buffer [11]: poorly soluble
